Key:
[1] = Compound solubility in water; type: physicochemical; conditions: Table 4
[2] = biological target: T1, glucocerebrosidase (Gcase) (Homo sapiens, UniProt P04062); experiment: Glucocerebrosidase (Gcase) activation assay with 4-methylumbelliferyl-beta-D-glucopyranoside substrate, saposin C and phosphatidylserine/triton micelles, fluorescence readout; type: biochemical; conditions: Table 4
T1 construct: micellar solution containing 10 nM GCase and 100 nM saposin C
T1 sequence (P04062 40-536): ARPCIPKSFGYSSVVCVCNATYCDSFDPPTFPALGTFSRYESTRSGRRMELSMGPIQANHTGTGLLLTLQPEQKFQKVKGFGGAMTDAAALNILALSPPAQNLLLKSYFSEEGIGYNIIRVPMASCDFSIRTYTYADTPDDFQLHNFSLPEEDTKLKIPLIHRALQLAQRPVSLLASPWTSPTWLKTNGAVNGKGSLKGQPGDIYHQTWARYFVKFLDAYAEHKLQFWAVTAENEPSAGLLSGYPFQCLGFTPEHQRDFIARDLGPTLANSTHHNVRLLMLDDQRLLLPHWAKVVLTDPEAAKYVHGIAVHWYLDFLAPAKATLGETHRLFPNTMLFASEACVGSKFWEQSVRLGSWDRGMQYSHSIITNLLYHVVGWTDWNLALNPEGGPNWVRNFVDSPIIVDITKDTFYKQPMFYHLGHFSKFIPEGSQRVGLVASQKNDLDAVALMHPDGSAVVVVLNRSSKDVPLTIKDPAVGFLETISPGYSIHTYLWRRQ
Outline: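 Fluorescence (ex 365 nm, em 440 nm) read after glycine pH 12.5 stop of a 15 min room-temperature reaction. GCase 10 nM plus saposin C 100 nM in PS/triton micelles, pH 4.7, preincubated 30 min with compound; substrate solution held 2 mM 4-MU-beta-glucoside. Screened at 1.0 and 0.1 μM; 8-point, 3-fold curves from 5 μM top.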

Cc1cc(C)n2ncc(C(=O)Nc3ccc(N4CCCCC4)cc3)c2n1 [IV-3]
Compound Solubility in Water [1]: <1.5 µg/mL | Percent Gease Activation, 0.1 μM Test Compound ([2]; 0.1 μM test compound): * (less than 10% Gcase activation) | Percent Gease Activation, 1 μM Test Compound ([2]; 1 μM test compound): + (less than 30% Gcase activation)

Reference: patent US10934298B2, “Substituted pyrazolo[1,5-a]pyrimidines for the treatment of medical disorders” (BIAL—BioTech Investments, Inc., priority 2016, dated 2021)
